# Experimental data reported in article PMC10209615, “Pharmacological inhibition of LSD1 suppresses growth of hepatocellular carcinoma by inducing GADD45B” (MedComm, 2023).
# How the values were obtained:
# Assay in all cases: Kinase activity detection (Eurofins)
# Type in all cases: biochemical
# Abl = target: T1, Abl (Homo sapiens, UniProt P00519); conditions: ZY0511 1 µM, read-out: Inhibition rate
# T1 construct: purchased Eurofins Pharma Discovery Services
# Description: (§1) The activity of ZY0511 against 104 cancer‐related kinases was carried out by Eurofins Pharma Discovery Services (Celle Lévescault, France).
# Aurora-A = target: T2, Aurora-A (Homo sapiens, UniProt O14965); conditions: ZY0511 1 µM, read-out: Inhibition rate
# T2 construct: purchased Eurofins Pharma Discovery Services (KinaseProfiler)
# Description: as §1
# Bmx = target: T3, Bmx (Homo sapiens, UniProt P51813); conditions: ZY0511 1 µM, read-out: Inhibition rate
# T3 construct: purchased Eurofins Pharma Discovery Services (KinaseProfiler)
# Description: as §1
# CDK2/cyclinA = target: T4, CDK2/cyclinA (Homo sapiens, UniProt P24941); conditions: ZY0511 1 µM, read-out: Inhibition rate
# T4 construct: purchased Eurofins Pharma Discovery Services
# Description: as §1
# CHK1 = target: T5, CHK1 (Homo sapiens, UniProt O14757); conditions: ZY0511 1 µM
# T5 construct: purchased Eurofins Pharma Discovery Services (KinaseProfiler)
# Description: as §1
# CHK2 = target: T6, CHK2 (Homo sapiens, UniProt O96017); conditions: ZY0511 1 µM, read-out: Activation rate
# T6 construct: purchased Eurofins Pharma Discovery Services (KinaseProfiler)
# Description: as §1
# CK1γ1 = target: T7, CK1γ1 (Homo sapiens, UniProt Q9HCP0); conditions: ZY0511 1 µM, read-out: Inhibition rate
# T7 construct: purchased Eurofins Pharma Discovery Services
# Description: as §1
# CK1γ2 = target: T8, CK1γ2 (Homo sapiens, UniProt P78368); conditions: ZY0511 1 µM, read-out: Inhibition rate
# T8 construct: purchased Eurofins Pharma Discovery Services
# Description: as §1
# CK1γ3 = target: T9, CK1γ3 (Homo sapiens, UniProt Q9Y6M4); conditions: ZY0511 1 µM, read-out: Inhibition rate
# T9 construct: purchased Eurofins Pharma Discovery Services (KinaseProfiler)
# Description: as §1
# CSK = target: T10, CSK (Homo sapiens, UniProt P41240); conditions: ZY0511 1 µM, read-out: Inhibition rate
# T10 construct: purchased Eurofins Pharma Discovery Services (KinaseProfiler)
# Description: as §1
# DAPK1 = target: T11, DAPK1 (Homo sapiens, UniProt P53355); conditions: ZY0511 1 µM, read-out: Activation rate
# T11 construct: purchased Eurofins Pharma Discovery Services (KinaseProfiler)
# Description: as §1
# DCAMKL3 = target: T12, DCAMKL3 (Homo sapiens, UniProt Q9C098); conditions: ZY0511 1 µM, read-out: Inhibition rate
# T12 construct: purchased Eurofins Pharma Discovery Services
# Description: as §1
# EGFR (L861Q) = target: T13, EGFR (L861Q) (Homo sapiens, UniProt P00533, L861Q); conditions: ZY0511 1 µM, read-out: Inhibition rate
# T13 construct: purchased Eurofins Pharma Discovery Services (KinaseProfiler)
# Description: as §1
# EphA7 = target: T14, EphA7 (Rattus norvegicus, UniProt P54759); conditions: ZY0511 1 µM, read-out: Inhibition rate
# T14 construct: purchased Eurofins Pharma Discovery Services
# Description: as §1
# EphB4 = target: T15, EphB4 (Homo sapiens, UniProt P54760); conditions: ZY0511 1 µM, read-out: Activation rate
# T15 construct: purchased Eurofins Pharma Discovery Services (KinaseProfiler)
# Description: as §1
# FAK = target: T16, FAK (Homo sapiens, UniProt Q05397); conditions: ZY0511 1 µM, read-out: Inhibition rate
# T16 construct: purchased Eurofins Pharma Discovery Services
# Description: as §1
# FGFR2 = target: T17, FGFR2 (Homo sapiens, UniProt P21802); conditions: ZY0511 1 µM, read-out: Inhibition rate
# T17 construct: purchased Eurofins Pharma Discovery Services
# Description: as §1
# FGFR3 = target: T18, FGFR3 (Homo sapiens, UniProt P22607); conditions: ZY0511 1 µM, read-out: Inhibition rate
# T18 construct: purchased Eurofins Pharma Discovery Services (KinaseProfiler)
# Description: as §1
# FGFR4 = target: T19, FGFR4 (Homo sapiens, UniProt P22455); conditions: ZY0511 1 µM, read-out: Inhibition rate
# T19 construct: purchased Eurofins Pharma Discovery Services
# Description: as §1
# Fer = target: T20, Fer (Homo sapiens, UniProt P16591); conditions: ZY0511 1 µM, read-out: Inhibition rate
# T20 construct: purchased Eurofins Pharma Discovery Services (KinaseProfiler)
# Description: as §1
# Flt1 = target: T21, Flt1 (Homo sapiens, UniProt P17948); conditions: ZY0511 1 µM, read-out: Inhibition rate
# T21 construct: purchased Eurofins Pharma Discovery Services (KinaseProfiler)
# Description: as §1
# Flt4 = target: T22, Flt4 (Homo sapiens, UniProt P35916)
# T22 construct: purchased Eurofins Pharma Discovery Services
# Description: as §1
# IKKα = target: T23, IKKα (Homo sapiens, UniProt O15111); conditions: ZY0511 1 µM, read-out: Activation rate
# T23 construct: purchased Eurofins Pharma Discovery Services (KinaseProfiler)
# Description: as §1
# MEK1 = target: T24, MEK1 (Homo sapiens, UniProt Q02750); conditions: ZY0511 1 µM, read-out: Inhibition rate
# T24 construct: purchased Eurofins Pharma Discovery Services (KinaseProfiler)
# Description: as §1
# NIM1 = target: T25, NIM1 (Homo sapiens, UniProt Q8IY84); conditions: ZY0511 1 µM, read-out: Inhibition rate
# T25 construct: purchased Eurofins Pharma Discovery Services
# Description: as §1
# PAK1 = target: T26, PAK1 (Homo sapiens, UniProt Q13153); conditions: ZY0511 1 µM, read-out: Activation rate
# T26 construct: purchased Eurofins Pharma Discovery Services (KinaseProfiler)
# Description: as §1
# PAK4 = target: T27, PAK4 (Homo sapiens, UniProt O96013); conditions: ZY0511 1 µM, read-out: Inhibition rate
# T27 construct: purchased Eurofins Pharma Discovery Services (KinaseProfiler)
# Description: as §1
# PDGFRα (D842V) = target: T28, PDGFRα (D842V) (Homo sapiens, UniProt P16234, D842V); conditions: ZY0511 1 µM, read-out: Activation rate
# T28 construct: purchased Eurofins Pharma Discovery Services (KinaseProfiler)
# Description: as §1
# PDGFRα = target: T29, PDGFRα (Homo sapiens, UniProt P16234); conditions: ZY0511 1 µM, read-out: Activation rate
# T29 construct: purchased Eurofins Pharma Discovery Services (KinaseProfiler)
# Description: as §1
# PDK1 = target: T30, PDK1 (Homo sapiens, UniProt O15530); conditions: ZY0511 1 µM, read-out: Inhibition rate
# T30 construct: purchased Eurofins Pharma Discovery Services (KinaseProfiler)
# Description: as §1
# PI3 Kinase (p120γ) = target: T31, PI3 Kinase (p120γ) (Homo sapiens, UniProt P48736); conditions: ZY0511 1 µM, read-out: Inhibition rate
# T31 construct: purchased Eurofins Pharma Discovery Services (KinaseProfiler)
# Description: as §1
# PKBα = target: T32, PKBα (Homo sapiens, UniProt P31749); conditions: ZY0511 1 µM, read-out: Inhibition rate
# T32 construct: purchased Eurofins Pharma Discovery Services (KinaseProfiler)
# Description: as §1
# PKCµ = target: T33, PKCµ (Homo sapiens, UniProt Q15139); conditions: ZY0511 1 µM, read-out: Inhibition rate
# T33 construct: purchased Eurofins Pharma Discovery Services
# Description: as §1
# PKCι = target: T34, PKCι (Homo sapiens, UniProt P41743); conditions: ZY0511 1 µM, read-out: Inhibition rate
# T34 construct: purchased Eurofins Pharma Discovery Services
# Description: as §1
# PKD2 = target: T35, PKD2 (Homo sapiens, UniProt Q9BZL6); conditions: ZY0511 1 µM, read-out: Inhibition rate
# T35 construct: purchased Eurofins Pharma Discovery Services
# Description: as §1
# Snk = target: T36, Snk (Homo sapiens, UniProt Q9NYY3); conditions: ZY0511 1 µM, read-out: Inhibition rate
# T36 construct: purchased Eurofins Pharma Discovery Services (KinaseProfiler)
# Description: as §1
# Tie2 = target: T37, Tie2 (Homo sapiens, UniProt Q02763); conditions: ZY0511 1 µM, read-out: Inhibition rate
# T37 construct: purchased Eurofins Pharma Discovery Services (KinaseProfiler)
# Description: as §1
# TrkC = target: T38, TrkC (Homo sapiens, UniProt Q16288); conditions: ZY0511 1 µM, read-out: Inhibition rate
# T38 construct: purchased Eurofins Pharma Discovery Services (KinaseProfiler)
# Description: as §1
# Yes = target: T39, Yes (Homo sapiens, UniProt P07947); conditions: ZY0511 1 µM, read-out: Inhibition rate
# T39 construct: purchased Eurofins Pharma Discovery Services
# Description: as §1
# ZAP-70 = target: T40, ZAP-70 (Homo sapiens, UniProt P43403); conditions: ZY0511 1 µM, read-out: Activation rate
# T40 construct: purchased Eurofins Pharma Discovery Services (KinaseProfiler)
# Description: as §1
# ZIPK = target: T41, ZIPK (Homo sapiens, UniProt O43293); conditions: ZY0511 1 µM, read-out: Inhibition rate
# T41 construct: purchased Eurofins Pharma Discovery Services (KinaseProfiler)
# Description: as §1
# cKit (V560G) = target: T42, cKit (V560G) (Homo sapiens, UniProt P10721, V560G); conditions: ZY0511 1 µM, read-out: Inhibition rate
# T42 construct: purchased Eurofins Pharma Discovery Services (KinaseProfiler)
# Description: as §1
# T22 sequence (P35916 25-1363, species assumed): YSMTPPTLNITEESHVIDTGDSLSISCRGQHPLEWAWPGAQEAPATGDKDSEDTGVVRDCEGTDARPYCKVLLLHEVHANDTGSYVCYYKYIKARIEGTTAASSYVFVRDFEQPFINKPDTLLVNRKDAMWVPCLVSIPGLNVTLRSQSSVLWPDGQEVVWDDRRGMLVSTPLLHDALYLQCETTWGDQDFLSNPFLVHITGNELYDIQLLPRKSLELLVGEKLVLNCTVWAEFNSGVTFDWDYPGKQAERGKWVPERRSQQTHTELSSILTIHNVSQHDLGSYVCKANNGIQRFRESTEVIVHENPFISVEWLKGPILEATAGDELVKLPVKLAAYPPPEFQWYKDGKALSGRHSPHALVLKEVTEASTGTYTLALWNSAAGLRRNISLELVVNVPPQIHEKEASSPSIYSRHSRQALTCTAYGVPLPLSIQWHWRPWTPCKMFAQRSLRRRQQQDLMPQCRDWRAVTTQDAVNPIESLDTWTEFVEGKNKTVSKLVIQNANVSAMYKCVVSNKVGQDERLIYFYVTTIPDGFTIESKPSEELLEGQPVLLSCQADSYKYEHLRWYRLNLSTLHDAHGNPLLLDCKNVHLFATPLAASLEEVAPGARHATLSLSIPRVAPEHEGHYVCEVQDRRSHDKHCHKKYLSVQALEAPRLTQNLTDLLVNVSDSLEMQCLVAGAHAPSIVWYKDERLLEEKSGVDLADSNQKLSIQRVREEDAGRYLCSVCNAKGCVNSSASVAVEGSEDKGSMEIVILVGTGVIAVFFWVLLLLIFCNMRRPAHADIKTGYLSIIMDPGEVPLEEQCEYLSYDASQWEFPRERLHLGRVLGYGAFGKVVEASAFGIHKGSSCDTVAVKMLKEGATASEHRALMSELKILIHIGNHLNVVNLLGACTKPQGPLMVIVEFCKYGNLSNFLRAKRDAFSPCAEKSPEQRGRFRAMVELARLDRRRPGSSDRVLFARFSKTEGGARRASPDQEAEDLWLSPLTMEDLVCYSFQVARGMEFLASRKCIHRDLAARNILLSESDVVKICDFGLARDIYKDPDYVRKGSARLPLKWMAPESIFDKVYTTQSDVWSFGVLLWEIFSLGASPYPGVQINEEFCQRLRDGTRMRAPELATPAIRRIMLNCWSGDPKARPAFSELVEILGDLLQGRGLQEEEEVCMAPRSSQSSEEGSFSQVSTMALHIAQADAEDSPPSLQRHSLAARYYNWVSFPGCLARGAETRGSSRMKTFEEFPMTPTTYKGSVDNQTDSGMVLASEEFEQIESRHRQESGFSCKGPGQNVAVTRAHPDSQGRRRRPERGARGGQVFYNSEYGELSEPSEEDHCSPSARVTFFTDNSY
# T32 sequence (P31749 whole entry): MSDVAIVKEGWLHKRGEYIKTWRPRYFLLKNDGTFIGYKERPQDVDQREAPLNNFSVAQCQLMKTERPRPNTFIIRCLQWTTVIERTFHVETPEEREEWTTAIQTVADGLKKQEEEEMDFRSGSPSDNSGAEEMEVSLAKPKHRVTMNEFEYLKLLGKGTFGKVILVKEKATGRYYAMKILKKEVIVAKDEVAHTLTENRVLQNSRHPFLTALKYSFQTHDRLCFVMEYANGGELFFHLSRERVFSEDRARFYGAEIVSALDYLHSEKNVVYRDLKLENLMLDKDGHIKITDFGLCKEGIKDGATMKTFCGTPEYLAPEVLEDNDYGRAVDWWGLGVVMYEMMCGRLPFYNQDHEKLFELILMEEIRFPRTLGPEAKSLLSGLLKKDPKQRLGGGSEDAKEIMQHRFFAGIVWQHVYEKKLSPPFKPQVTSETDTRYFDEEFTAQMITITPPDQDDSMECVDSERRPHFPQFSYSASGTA
# T21 sequence (P17948 27-1338): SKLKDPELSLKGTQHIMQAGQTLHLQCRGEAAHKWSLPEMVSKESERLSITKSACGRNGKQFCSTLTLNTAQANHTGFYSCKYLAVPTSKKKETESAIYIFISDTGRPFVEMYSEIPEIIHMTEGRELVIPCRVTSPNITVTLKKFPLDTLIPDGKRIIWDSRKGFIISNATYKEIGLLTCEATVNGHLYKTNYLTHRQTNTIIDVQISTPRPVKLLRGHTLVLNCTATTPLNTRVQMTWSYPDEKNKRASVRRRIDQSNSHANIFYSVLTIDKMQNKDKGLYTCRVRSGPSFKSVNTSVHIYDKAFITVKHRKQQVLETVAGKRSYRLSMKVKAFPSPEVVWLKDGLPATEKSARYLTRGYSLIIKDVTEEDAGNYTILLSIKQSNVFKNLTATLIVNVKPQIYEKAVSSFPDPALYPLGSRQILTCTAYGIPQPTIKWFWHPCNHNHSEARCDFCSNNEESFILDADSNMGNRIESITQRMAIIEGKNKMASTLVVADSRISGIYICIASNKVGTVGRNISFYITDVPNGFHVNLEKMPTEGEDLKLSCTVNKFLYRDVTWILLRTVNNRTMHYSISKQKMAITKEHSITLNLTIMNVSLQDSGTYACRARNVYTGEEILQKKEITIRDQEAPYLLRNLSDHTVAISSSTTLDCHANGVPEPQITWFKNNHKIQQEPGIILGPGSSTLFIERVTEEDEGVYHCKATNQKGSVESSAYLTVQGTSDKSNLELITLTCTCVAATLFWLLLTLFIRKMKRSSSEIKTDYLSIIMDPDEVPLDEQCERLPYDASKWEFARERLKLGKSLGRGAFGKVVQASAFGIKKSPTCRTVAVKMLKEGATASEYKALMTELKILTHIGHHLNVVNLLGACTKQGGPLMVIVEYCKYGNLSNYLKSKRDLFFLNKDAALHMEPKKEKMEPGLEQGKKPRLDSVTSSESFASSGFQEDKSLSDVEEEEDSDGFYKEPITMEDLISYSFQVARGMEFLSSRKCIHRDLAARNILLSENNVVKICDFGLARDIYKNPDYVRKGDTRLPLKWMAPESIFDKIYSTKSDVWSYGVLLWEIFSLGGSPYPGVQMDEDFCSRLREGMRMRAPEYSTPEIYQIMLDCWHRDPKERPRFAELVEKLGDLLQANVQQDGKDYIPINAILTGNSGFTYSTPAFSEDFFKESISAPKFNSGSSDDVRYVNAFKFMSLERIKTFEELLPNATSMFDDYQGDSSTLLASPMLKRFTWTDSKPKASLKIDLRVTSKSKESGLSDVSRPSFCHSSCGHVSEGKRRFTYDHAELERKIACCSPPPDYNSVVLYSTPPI
# T8 sequence (P78368 whole entry): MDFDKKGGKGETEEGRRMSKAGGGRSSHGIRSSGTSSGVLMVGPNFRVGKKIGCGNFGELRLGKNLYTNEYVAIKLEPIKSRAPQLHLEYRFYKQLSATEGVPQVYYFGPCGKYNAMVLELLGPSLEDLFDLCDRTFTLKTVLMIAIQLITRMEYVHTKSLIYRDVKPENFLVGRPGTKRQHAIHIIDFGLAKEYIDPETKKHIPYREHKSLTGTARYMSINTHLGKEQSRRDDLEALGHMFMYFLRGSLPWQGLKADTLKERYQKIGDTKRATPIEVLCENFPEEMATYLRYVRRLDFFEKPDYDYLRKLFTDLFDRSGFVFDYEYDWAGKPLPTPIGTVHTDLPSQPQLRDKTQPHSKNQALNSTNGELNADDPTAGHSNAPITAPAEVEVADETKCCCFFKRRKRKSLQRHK
# T24 sequence (Q02750 whole entry): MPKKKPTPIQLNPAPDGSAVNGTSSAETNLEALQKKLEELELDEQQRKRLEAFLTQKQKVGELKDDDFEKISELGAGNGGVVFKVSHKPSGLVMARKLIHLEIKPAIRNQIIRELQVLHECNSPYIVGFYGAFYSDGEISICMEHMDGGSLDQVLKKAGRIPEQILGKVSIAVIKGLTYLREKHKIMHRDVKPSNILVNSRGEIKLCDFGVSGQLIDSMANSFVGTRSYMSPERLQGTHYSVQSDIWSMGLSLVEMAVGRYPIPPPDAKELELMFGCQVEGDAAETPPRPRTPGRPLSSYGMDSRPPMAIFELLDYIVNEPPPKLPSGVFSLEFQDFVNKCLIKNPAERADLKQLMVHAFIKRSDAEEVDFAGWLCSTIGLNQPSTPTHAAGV
# T41 sequence (O43293 whole entry): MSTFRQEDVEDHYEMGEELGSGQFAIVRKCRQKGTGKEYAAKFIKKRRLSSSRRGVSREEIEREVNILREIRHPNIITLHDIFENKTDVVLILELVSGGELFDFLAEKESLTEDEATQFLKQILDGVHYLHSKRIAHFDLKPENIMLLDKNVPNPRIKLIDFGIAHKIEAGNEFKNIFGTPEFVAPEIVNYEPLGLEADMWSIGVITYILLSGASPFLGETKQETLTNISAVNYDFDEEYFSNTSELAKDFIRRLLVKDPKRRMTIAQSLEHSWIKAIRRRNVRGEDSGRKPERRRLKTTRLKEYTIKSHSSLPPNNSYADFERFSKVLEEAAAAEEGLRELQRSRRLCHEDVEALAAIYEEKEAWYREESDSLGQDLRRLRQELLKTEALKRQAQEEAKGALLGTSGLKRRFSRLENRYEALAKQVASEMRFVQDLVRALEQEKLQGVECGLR
# T27 sequence (O96013 whole entry): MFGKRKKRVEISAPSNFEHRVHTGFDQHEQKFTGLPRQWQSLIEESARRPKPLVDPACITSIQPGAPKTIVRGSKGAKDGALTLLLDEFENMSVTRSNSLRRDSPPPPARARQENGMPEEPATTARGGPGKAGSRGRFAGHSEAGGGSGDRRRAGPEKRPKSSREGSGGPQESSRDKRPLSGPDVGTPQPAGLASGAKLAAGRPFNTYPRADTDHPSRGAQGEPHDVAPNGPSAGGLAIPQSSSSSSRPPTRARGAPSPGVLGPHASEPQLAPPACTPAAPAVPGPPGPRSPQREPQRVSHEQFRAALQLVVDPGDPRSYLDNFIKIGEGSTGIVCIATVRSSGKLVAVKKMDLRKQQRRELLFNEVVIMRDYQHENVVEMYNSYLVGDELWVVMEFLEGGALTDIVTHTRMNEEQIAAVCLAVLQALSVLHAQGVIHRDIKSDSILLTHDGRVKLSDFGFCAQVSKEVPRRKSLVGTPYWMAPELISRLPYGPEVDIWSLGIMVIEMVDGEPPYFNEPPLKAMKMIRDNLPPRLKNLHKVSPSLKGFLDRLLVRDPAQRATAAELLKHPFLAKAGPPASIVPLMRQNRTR
smiles,measurement,setting,value
"O=C(N/N=C1\CCc2c(Cl)ccc(O)c21)c1cccc(S(=O)(=O)N2CCOCC2)c1 [ZY0511, (E)‐N'‐(2, 3‐dihydro‐1H‐inden‐1‐ylidene) benzohydrazides]",inhibition at 1 µM,Abl,13%
same,inhibition at 1 µM,Aurora-A,17%
same,inhibition at 1 µM,Bmx,17%
same,inhibition at 1 µM,CDK2/cyclinA,10%
same,Activation rate,CHK1,1%
same,activation at 1 µM,CHK2,2%
same,inhibition at 1 µM,CK1γ1,12%
same,inhibition at 1 µM,CK1γ2,13%
same,inhibition at 1 µM,CK1γ3,21%
same,inhibition at 1 µM,CSK,4%
same,activation at 1 µM,DAPK1,5%
same,inhibition at 1 µM,DCAMKL3,3%
same,inhibition at 1 µM,EGFR (L861Q),6%
same,inhibition at 1 µM,EphA7,2%
same,activation at 1 µM,EphB4,5%
same,inhibition at 1 µM,FAK,3%
same,inhibition at 1 µM,FGFR2,11%
same,inhibition at 1 µM,FGFR3,20%
same,inhibition at 1 µM,FGFR4,14%
same,inhibition at 1 µM,Fer,47%
same,inhibition at 1 µM,Flt1,20%
same,IC50,Flt4,> 10 µM
same,inhibition at 1 µM,"Flt4; ZY0511 1 µM, read-out: Inhibition rate",62%
same,activation at 1 µM,IKKα,13%
same,inhibition at 1 µM,MEK1,6%
same,inhibition at 1 µM,NIM1,2%
same,activation at 1 µM,PAK1,1%
same,inhibition at 1 µM,PAK4,20%
same,activation at 1 µM,PDGFRα (D842V),2%
same,activation at 1 µM,PDGFRα,33%
same,inhibition at 1 µM,PDK1,8%
same,inhibition at 1 µM,PI3 Kinase (p120γ),10%
same,inhibition at 1 µM,PKBα,4%
same,inhibition at 1 µM,PKCµ,10%
same,inhibition at 1 µM,PKCι,2%
same,inhibition at 1 µM,PKD2,2%
same,inhibition at 1 µM,Snk,4%
same,inhibition at 1 µM,Tie2,50%
same,inhibition at 1 µM,TrkC,7%
same,inhibition at 1 µM,Yes,0%
same,activation at 1 µM,ZAP-70,4%
same,inhibition at 1 µM,ZIPK,6%
same,inhibition at 1 µM,cKit (V560G),7%
